Assay results taken from patent US10034871B2, “Salts and compositions useful for treating disease” (REGENTS OF THE UNIVERSITY OF MINNESOTA, priority 2014, dated 2018).

How the values were obtained:
[1] = molecular target: T1, (Mus musculus, UniProt P32300); experiment: Tail-flick assay, antagonism of analgesia produced by delta opioid agonists (DPDPE, DEL II); format: in vivo, ICR-CD1 mice; settings: mice, i.c.v.
T1 construct: by the intracerebroventricular (i.c.v.) route of administration to mice; from tissue; host or cells: living ICR-CD1 mice (central nervous system, i.c.v. dosing)
Experimental: (§1) The testing protocol involved the tail-flick assay. For the measurement of the tail-flick latency, ICR-CD1 mice, mice were held gently in one hand with the tail positioned in the apparatus (Tail Flick Analgesia Meter, Columbus Instruments, Columbus, Ohio) for radiant heat stimulus. The tail-flick response was elicited by applying radiant heat to the dorsal side of the tail. The intensity of the heat was set so that the mouse flicks its tail within 2 to 3 seconds. The test latency was measured before treatment of the agonist control, and again after the antagonist treatment at the time of peak agonist activity.
At least three groups of four to ten mice were used for each dose response curve. ED50 values with 95% confidence intervals (C.I.) were computed with GraphPad Prism 4 using nonlinear regression methods. […] Antinociception was quantified as the percent maximal possible effect (% MPE), which is calculated as: % MPE=(Test−Control/10−Control)×100. GNTI.2HCl or GNTI.2LA. […] The data are expressed as bar graphs that indicate the % maximum possible effect (% MPE) of GNTI-.2HCl or GNTI.2LA in antagonizing the analgesia produced by selective kappa opioid agonists (U50488H, Bremazocine, U69593) or delta opioid agonists (DPDPE, DEL II) by the intracerebroventricular (i.c.v.) route of administration to mice.

kappa opioid receptors = molecular target: T2, kappa opioid receptors (Mus musculus, UniProt P33534); experiment: Tail-flick assay, antagonism of analgesia produced by selective kappa opioid agonists (U50488H, Bremazocine, U69593); format: in vivo, ICR-CD1 mice; settings: mice, i.c.v.; for antagonism of the analgesia produced by selective kappa opioid agonists (% MPE): agonists U50488H, Bremazocine, U69593
T2 construct: from tissue; host or cells: living ICR-CD1 mice (central nervous system, i.c.v. dosing)
Experimental: as §1
At least three groups of four to ten mice were used for each dose response curve. ED50 values with 95% confidence intervals (C.I.) were computed with GraphPad Prism 4 using nonlinear regression methods. […] Antinociception was quantified as the percent maximal possible effect (% MPE), which is calculated as: % MPE=(Test−Control/10−Control)×100. GNTI.2HCl or GNTI.2LA. The data for the dihydrochloride salt (Sigma GNTI2HCl) and the di-lipoic acid salt, GNTI.2LA (identified as WY-120) are shown in FIGS. 1 and 2. The data are expressed as bar graphs that indicate the % maximum possible effect (% MPE) of GNTI-.2HCl or GNTI.2LA in antagonizing the analgesia produced by selective kappa opioid agonists (U50488H, Bremazocine, U69593) or delta opioid agonists (DPDPE, DEL II) by the intracerebroventricular (i.c.v.) route of administration to mice.

[2] = tested on: insulin-stimulated glucose disposal; settings: 13 patients with type 2 diabetes, single intravenous infusion; cited from earlier work
insulin sensitivity [3] = settings: 72 patients with type 2 diabetes, oral administration, after four weeks of treatment; cited from earlier work
insulin sensitivity [4] = settings: 20 patients with type 2 diabetes, intravenous infusion for ten days, measured 24 hours after the last infusion; cited from earlier work

T2 sequence (P33534 whole entry): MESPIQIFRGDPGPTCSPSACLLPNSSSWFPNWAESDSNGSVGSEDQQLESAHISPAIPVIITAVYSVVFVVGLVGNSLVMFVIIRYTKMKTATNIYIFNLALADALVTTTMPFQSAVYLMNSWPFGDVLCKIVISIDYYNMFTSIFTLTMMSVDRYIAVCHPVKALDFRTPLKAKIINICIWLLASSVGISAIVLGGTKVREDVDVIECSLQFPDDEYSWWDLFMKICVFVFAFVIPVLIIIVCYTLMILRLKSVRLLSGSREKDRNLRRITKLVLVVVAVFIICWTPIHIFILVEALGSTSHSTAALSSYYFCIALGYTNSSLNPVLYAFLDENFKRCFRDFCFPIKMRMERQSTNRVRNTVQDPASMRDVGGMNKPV
T1 sequence (P32300 whole entry): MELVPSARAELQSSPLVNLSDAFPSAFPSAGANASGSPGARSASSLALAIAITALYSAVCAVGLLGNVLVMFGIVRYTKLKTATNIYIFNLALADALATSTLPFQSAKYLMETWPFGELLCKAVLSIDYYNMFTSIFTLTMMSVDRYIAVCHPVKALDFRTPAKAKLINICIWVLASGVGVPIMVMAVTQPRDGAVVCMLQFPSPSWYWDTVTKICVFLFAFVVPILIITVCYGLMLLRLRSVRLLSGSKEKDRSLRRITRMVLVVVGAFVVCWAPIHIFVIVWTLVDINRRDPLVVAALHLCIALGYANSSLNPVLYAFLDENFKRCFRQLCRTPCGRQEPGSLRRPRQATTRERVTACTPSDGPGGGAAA

Row | SMILES | antagonism of the analgesia produced by delta opioid agonists (% MPE) [1] | kappa opioid antagonist selectivity compared with GNTI.2HCl (kappa opioid receptors; kappa versus delta agonists) | antagonism of the analgesia produced by selective kappa opioid agonists (% MPE) (kappa opioid receptors) | improvement of insulin-stimulated glucose disposal compared to a placebo infusion [2] [%] | improvement of insulin sensitivity (insulin sensitivity [3]) [%] | insulin sensitivity (insulin sensitivity [4])
1 | N=C(N)Nc1ccc2[nH]c3c(c2c1)C[C@@]1(O)C2Cc4ccc(O)c5c4[C@@]1(CCN2CC1CC1)[C@H]3O5 [GNTI.2LA, GNTI Dilipoate] | not significantly affected | not significantly different | selectively antagonize the different kappa agonists |  |  | 
2 | O=C(O)CCCCC1CCSS1 (centres unmarked) [LA, 1,2-dithiolane-3-pentanoic acid] |  |  |  | 50 | 25 | improved insulin sensitivity
3 | Cl.Cl.NC(N)=Nc1ccc2[nH]c3c(c2c1)C[C@@]1(O)[C@H]2Cc4ccc(O)c5c4[C@@]1(CCN2CC1CC1)[C@H]3O5 [GNTI.2HCI] | not significantly affected |  | selectively antagonize the different kappa agonists |  |  | 
